Where a name gives a salt, the structure may show the parent alone.
Experiments:
[1] = Dynamic vapour sorption (DVS); assay type: physicochemical; settings: 25° C., RH 0-95%
Protocol: About 20 mg of test compound was transferred into a SMS dynamic vapor sorption and record the weight change with respect to the atmospheric humidity at 25° C.
The following parameters were used:
drying: 60 min. under dry nitrogen
equilibrium: 60 min/Step.

[2] = Chemical stability testing, degradation by UPLC; assay type: physicochemical; settings: stored up to 30 days, 50-80° C./10-75% RH; data not shown
Protocol: Samples were extracted with solvent mixture (DMSO/water 80:20) (7 mL) in a 10 mL vial.
UPLC chromatography was performed using the following parameters:
Analysis run time: 36 min Data collection time: 30 min Injection volume: 5 μL Wavelength: scan between 200 and 400 nm Wavelength used for content uniformity calculations: 334.0 nm
The compositions of Examples 4d, 4e, 4f, 4g, 4h and 4i were stored for 14 and 30 days under conditions of 50° C./75% RH, 60° C./30% RH, 60° C./50% RH, 70° C./10% RH, 70° C./75% RH and 80° C./50% RH.

[3] = test system: BEAS2B cells; experiment: Poly I:C-induced ICAM-1 expression in BEAS2B cells; assay type: cell-based; settings: Homo sapiens, BEAS-2B, 18 h after poly I:C transfection, read-out: PolyIC/ICAM1 IC50 (BEAS2B)
Protocol: Poly I:C was used in these studies as a simple, RNA virus mimic. Poly I:C-Oligofectamine mixture (2% Oligofectamine±1 μg/mL Poly I:C, 25 μL; Life Technologies and Invivogen Ltd., San Diego, Calif., respectively) was transfected into BEAS2B cells (human bronchial epithelial cells, ATCC). Cells were pre-incubated with final concentrations of test compounds for 2 h and the level of ICAM-1 expression on the cell surface was determined by cell-based ELISA. […]
The cells were washed with PBS-Tween (3×200 μL) and incubated with the secondary antibody (100 μL; HRP-conjugated anti-rabbit IgG, Dako Ltd., Glostrup, Denmark). […] The ICAM-1 signal was detected by reading the absorbance at 450 nm against a reference wavelength of 655 nm using a spectrophotometer. The cells were then washed with PBS-Tween (3×200 μL) and total cell numbers in each well were determined by reading absorbance at 595 nm after Crystal Violet staining (50 μL of a 2% solution in PBS) and elution by 1% SDS solution (100 μL) in PBS. The measured OD 450-655 readings were corrected for cell number by dividing with the OD595 reading in each well. The inhibition of ICAM-1 expression was calculated at each concentration of test compound by comparison with vehicle control.

[4] = test system: sputum macrophages from COPD patients; experiment: Cytokine production in LPS-treated sputum macrophages from COPD patients; assay type: cell-based; settings: Homo sapiens, Macrophage; at 0.1 μg/mL; LPS 1 μg/mL, 18 h; read-out: Percent Inhibition IL-6
Protocol: Patients with COPD inhaled a nebulised solution of 3% (w/v) hypertonic saline using an ultrasonic nebuliser (Devilbiss, Carthage, Mo.) with tidal breathing for 5 min. This procedure was repeated a maximum of three times until enough sputum was obtained. The sputum samples were homogenized and mixed vigorously using a vortex mixer in 0.02% v/v dithiothreitol (DTT) solution. The samples were re-suspended in PBS (40 mL) followed by centrifugation at 1500 rpm at 4° C. for 10 min to obtain sputum cell pellets. The pellets were washed with PBS (40 mL). […]
Where appropriate, 1 μL of a solution containing either the test compound or reference article at the stated concentrations (either 0.1 μg/mL, 0.01 μg/mL, or 0.001 μg/mL) or alternatively 1 μL of DMSO as the vehicle control was added to each well (200 μL in media) and the cells were incubated for 2 h. […] After washing with 200 μL wash buffer per well, the beads were resuspended in sheath fluid (150 μL) and analyzed immediately. The level of each analyte in the supernatant was calculated using Xcel Fit software with a 4 or 5-parameter equation using each standard curve. The inhibitions of each cytokine production were calculated at each concentration by comparison with vehicle control.

CCc1cncc(Nc2cc(COc3ccc(NC(=O)Nc4cc(C(C)(C)C)nn4-c4ccc(C)cc4)c4ccccc34)ccn2)n1 [Example 2A, 1-(3-(tert-butyl)-1-(p-tolyl)-1H-pyrazol-5-yl)-3-(4-((2-((6-ethylpyrazin-2-yl)amino)pyridin-4-yl)methoxy)naphthalen-1-yl)urea maleate (Form 2)]
hygroscopicity (DVS) [1]: does not appear to be hygroscopic | hygroscopicity (DVS) ([1]; listed as Example 3B): appeared not to be hygroscopic | percentage of total degradation, unmicronised and unblended material [2]: always lower than that for the free base

COCC(=O)Nc1cc(Oc2ccc(NC(=O)Nc3cc(C(C)(C)C)nn3-c3ccc(C)cc3)c3ccccc23)ccn1 [Reference Compound, N-(4-(4-(3-(3-tert-Butyl-1-p-tolyl-1H-pyrazol-5-yl)ureido)naphthalen-1-yloxy)pyridin-2-yl)-2-methoxyacetamide, reference compound]
IC50 [3]: 3.8 nM

CCC(=O)O[C@]1(C(=O)SCF)[C@H](C)C[C@H]2[C@@H]3C[C@H](F)C4=CC(=O)C=C[C@]4(C)[C@@]3(F)[C@@H](O)C[C@@]21C [Fluticasone propionate, fluticasone propionate, reference compound]
inhibition at 0.1 µg/mL [4]: 29 ± 21%
